Experiments:
[1] = test system: PIKFYVE TDP-43 yeast strain; assay: Propidium iodide viability assay in PIKFYVE TDP-43 yeast strain; assay type: cell-based; settings: for PIKfyve TDP-43 (active/inactive): PIKFYVE TDP-43 yeast model; for IC50: Saccharomyces cerevisiae, PIKFYVE TDP-43 yeast strain, reduction in PI-positive cells, 15 to 0.11 μM, 24 hours
Source text: Generation of TDP-43 yeast model expressing human PIKfyve. Human PIKFYVE (“entry clone”) was cloned into pAG416GPDccdB (“destination vector”) according to standard Gateway cloning protocols (Invitrogen, Life Technologies). […] Lithium acetate/polyethylene glycol-based transformation was used to introduce the above PIKFYVE plasmid into a BY4741 yeast strain auxotrophic for the ura3 gene and deleted for two transcription factors that regulate the xenobiotic efflux pumps, a major efflux pump, and FAB1, the yeast ortholog of PIKFYVE (MATa, snq2::KILeu2; pdr3::Klura3; pdr1::NATMX; fab1::G418^R, his3; leu2; ura3; met15; LYS2+) (FIG. 2). Transformed yeast were plated on solid agar plates with complete synthetic media lacking uracil (CSM-ura) and containing 2% glucose. Individual colonies harboring the control or PIKFYVE TDP-43 plasmids were recovered. A plasmid containing wild-type TDP-43 under the transcriptional control of the GAL1 promoter and containing the hygromycin-resistance gene as a selectable marker was transformed into the fab1::G418^R pAG416GPD-PIKFYVE yeast strain (FIG. 1). Transformed yeast were plated on CSM-ura containing 2% glucose and 200 µg/mL G418 after overnight recovery in media lacking antibiotic. Multiple independent isolates were further evaluated for cytotoxicity and TDP-43 expression levels.
Viability Assay. A control yeast strain with the wild-type yeast FAB1 gene and TDP-43 (“FAB1 TDP-43”, carries empty pAG416 plasmid), and the “PIKFYVE TDP-43” yeast strain, were assessed for toxicity using a propidium iodide viability assay. Both yeast strains were transferred from solid CSM-ura/2% glucose agar plates into 3 mL of liquid CSM-ura/2% glucose media for 6-8 hours at 30° C. with aeration. […] Log-phase overnight cultures were diluted to OD600 of 0.005 in CSM-ura containing either 2% raffinose or galactose and 150 µL dispensed into each well of a flat bottom 96-well plates. […] Wells containing DMSO alone were also evaluated as controls for compound effects. […] Cultures were immediately mixed to ensure compound distribution and covered plates incubated at 30° C. for 24 hours in a stationary, humified incubator.
(§1) Upon the completion of incubation, cultures were assayed for viability using propidium iodide (PI) to stain for dead/dying cells. A working solution of PI was made where, for each plate, 1 µL of 10 mM PI was added to 10 mL of CSM-ura (raffinose or galactose). The final PI solution (50 µL/well) was dispensed into each well of a new round bottom 96-well plate. The overnight 96-well assay plate was then mixed with a multichannel pipet and 50 µL transferred to the PI-containing plate. This plate was then incubated for 30 minutes at 30° C. in the dark. A benchtop flow cytometer (Miltenyi MACSquant) was then used to assess red fluorescence (B2 channel), forward scatter, and side scatter (with following settings: gentle mix, high flow rate, fast measurement, 10,000 events). Intensity histograms were then gated for “P-positive” or “PI-negative” using the raffinose and galactose cultures treated with DMSO as controls. The DMSO controls for raffinose or galactose-containing cultures were used to determine the window of increased cell death and this difference set to 100. All compounds were similarity gated and then compared to this maximal window to establish the percent reduction in PI-positive cells.

FAB1 TDP-43 yeast strain = assay: Propidium iodide viability assay in FAB1 TDP-43 control yeast strain; assay type: cell-based; settings: for FAB1 TDP-43 (active/inactive): FAB1 TDP-43 yeast model
Description: Viability Assay. A control yeast strain with the wild-type yeast FAB1 gene and TDP-43 (“FAB1 TDP-43”, carries empty pAG416 plasmid), and the “PIKFYVE TDP-43” yeast strain, were assessed for toxicity using a propidium iodide viability assay. Both yeast strains were transferred from solid CSM-ura/2% glucose agar plates into 3 mL of liquid CSM-ura/2% glucose media for 6-8 hours at 30° C. with aeration. Yeast cultures were then diluted to an optical density at 600 nm wavelength (OD600) of 0.005 in 3 mL of CSM-ura/2% raffinose and grown overnight at 30° C. with aeration to an OD600 of 0.3-0.8. Log-phase overnight cultures were diluted to OD600 of 0.005 in CSM-ura containing either 2% raffinose or galactose and 150 µL dispensed into each well of a flat bottom 96-well plates. Compounds formulated in 100% dimethyl sulfoxide (DMSO) were serially diluted in DMSO and 1.5 µL diluted compound transferred to the 96-well plates using a multichannel pipet. Wells containing DMSO alone were also evaluated as controls for compound effects. Tested concentrations ranged from 15 µM to 0.11 µM. Cultures were immediately mixed to ensure compound distribution and covered plates incubated at 30° C. for 24 hours in a stationary, humified incubator.
as §1

[2] = target: full-length human PIKFYVE (Homo sapiens (Human), UniProt Q9Y2I7, L932S/Q1183K/Q995L/S1033A/S696N/T998S); assay: PIKfyve Biochemical Assay (ADP-Glo Kinase assay, GST-PIKFYVE); settings: ADP-Glo with full-length PIKfyve; read-out: PIKfyve IC50
Sequence of full-length human PIKFYVE (Q9Y2I7 whole entry S696N/L932S/Q995L/T998S/S1033A/Q1183K): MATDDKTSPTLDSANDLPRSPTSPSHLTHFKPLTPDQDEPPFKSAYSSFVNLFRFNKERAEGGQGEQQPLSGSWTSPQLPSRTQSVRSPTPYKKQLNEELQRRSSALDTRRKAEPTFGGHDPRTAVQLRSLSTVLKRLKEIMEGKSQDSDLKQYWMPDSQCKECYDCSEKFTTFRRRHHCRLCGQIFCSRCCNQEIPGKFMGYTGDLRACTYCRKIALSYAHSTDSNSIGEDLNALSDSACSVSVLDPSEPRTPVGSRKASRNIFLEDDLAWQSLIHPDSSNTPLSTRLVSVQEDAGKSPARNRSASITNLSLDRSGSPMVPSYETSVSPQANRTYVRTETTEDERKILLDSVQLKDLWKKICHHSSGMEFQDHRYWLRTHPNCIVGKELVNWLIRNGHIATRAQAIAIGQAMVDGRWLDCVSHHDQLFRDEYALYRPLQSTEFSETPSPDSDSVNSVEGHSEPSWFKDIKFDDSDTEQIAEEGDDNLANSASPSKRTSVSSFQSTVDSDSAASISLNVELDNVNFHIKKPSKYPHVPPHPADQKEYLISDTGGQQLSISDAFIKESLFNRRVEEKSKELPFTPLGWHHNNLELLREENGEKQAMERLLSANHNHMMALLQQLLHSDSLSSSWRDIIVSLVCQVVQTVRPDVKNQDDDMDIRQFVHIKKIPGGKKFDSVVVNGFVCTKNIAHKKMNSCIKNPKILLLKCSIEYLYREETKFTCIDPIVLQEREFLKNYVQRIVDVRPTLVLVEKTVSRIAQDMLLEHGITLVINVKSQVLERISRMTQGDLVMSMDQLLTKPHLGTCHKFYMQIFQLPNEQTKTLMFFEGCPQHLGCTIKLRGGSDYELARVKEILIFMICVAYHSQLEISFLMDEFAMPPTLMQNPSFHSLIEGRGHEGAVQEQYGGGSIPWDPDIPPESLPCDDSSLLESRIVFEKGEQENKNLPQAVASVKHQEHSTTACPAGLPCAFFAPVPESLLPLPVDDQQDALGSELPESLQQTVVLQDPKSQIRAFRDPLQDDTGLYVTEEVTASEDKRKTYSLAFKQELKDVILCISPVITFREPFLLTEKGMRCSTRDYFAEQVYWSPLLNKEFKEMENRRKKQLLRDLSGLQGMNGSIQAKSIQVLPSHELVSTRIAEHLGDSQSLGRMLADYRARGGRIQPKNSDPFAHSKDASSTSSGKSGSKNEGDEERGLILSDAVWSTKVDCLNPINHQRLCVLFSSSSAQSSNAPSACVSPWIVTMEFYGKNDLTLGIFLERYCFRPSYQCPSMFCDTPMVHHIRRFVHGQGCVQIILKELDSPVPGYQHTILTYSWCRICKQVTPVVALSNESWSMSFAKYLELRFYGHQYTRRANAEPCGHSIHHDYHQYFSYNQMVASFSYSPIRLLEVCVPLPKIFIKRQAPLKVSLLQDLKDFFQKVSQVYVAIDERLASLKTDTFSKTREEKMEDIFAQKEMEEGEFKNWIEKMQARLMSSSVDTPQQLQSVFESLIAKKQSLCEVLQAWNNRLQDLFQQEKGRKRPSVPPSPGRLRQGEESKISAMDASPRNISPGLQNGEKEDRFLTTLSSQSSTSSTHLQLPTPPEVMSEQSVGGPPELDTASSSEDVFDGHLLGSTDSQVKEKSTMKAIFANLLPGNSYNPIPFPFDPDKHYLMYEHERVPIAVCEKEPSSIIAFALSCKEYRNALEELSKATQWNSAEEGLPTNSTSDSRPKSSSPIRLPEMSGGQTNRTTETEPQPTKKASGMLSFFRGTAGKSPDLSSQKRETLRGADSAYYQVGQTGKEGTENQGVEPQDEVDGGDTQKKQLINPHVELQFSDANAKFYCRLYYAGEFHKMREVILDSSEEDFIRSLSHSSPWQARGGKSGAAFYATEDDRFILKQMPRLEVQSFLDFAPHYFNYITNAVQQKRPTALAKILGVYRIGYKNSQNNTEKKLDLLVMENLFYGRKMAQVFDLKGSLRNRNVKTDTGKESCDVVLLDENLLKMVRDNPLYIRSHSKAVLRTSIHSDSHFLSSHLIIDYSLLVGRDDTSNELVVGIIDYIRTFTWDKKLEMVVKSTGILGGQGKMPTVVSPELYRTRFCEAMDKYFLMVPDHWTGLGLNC
Description: PIKfyve Biochemical Assay. The biochemical PIKFyve inhibition assays were run by Cama Biosciences according to proprietary methodology based on the Promega ADP-Glo™ Kinase assay. […] GST-PIKFYVE was purified by using glutathione sepharose chromatography and used in an ADP-Glo™ Kinase assay (Promega). Reactions were set up by adding the test compound solution, substrate solution, ATP solution and kinase solution, each at 4× final concentrations. Reactions were prepared with assay buffer (50 mM MOPS, 1 mM DTT, pH7.2), mixed, and incubated in black 384 well polystyrene plates for 1 hour at room temperature. ADP-Glo™ reagent was then added for 40 minutes, followed by kinase detection reagent for an additional 40 minutes. The kinase activity was evaluated by detecting relative light units on a luminescence plate reader. Samples were run in duplicate from 10 μM to 3 nM. […] IC50 values were calculated from concentration versus percent inhibition curves by fitting to a four-parameter logistic curve.
The biochemical PIKFyve inhibition assays were run by Cama Biosciences according to proprietary methodology based on the Promega ADP-Glo™ Kinase assay. […] GST-PIKFYVE was purified by using glutathione sepharose chromatography and used in an ADP-Glo™ Kinase assay (Promega).
Reactions were set up by adding the test compound solution, substrate solution, ATP solution and kinase solution, each at 4× final concentrations. Reactions were prepared with assay buffer (50 mM MOPS, 1 mM DTT, pH7.2), mixed, and incubated in black 384 well polystyrene plates for 1 hour at room temperature. ADP-Glo™ reagent was then added for 40 minutes, followed by kinase detection reagent for an additional 40 minutes. The kinase activity was evaluated by detecting relative light units on a luminescence plate reader. Samples were run in duplicate from 10 uM to 3 nM. […] IC50 values were calculated from concentration vs % inhibition curves by fitting to a four-parameter logistic curve.

| Compound | PIKfyve TDP-43 (active/inactive) [1] | FAB1 TDP-43 (active/inactive) (FAB1 TDP-43 yeast strain) | IC50 [1] | other results |
| --- | --- | --- | --- | --- |
| Cc1cccc(/C=N/Nc2cc(N3CC4CC3CO4)n3nc(-c4ccncc4)cc3n2)c1 (stereo not shown) | Active | Inactive | – | – |
| Cn1c(-c2ccncc2)nc2c(N3CCOCC3)ncnc21 | Inactive | Inactive | – | – |
| CN(C)c1cc(N2CCOCC2)n2nc(-c3ccncc3)cc2n1 | Inactive | Inactive | – | – |
| N#Cc1cc(N2CCOCC2)n2nc(-c3ccncc3)cc2n1 | Inactive | Inactive | – | IC50 [2]: > 10000 nM |
| Cc1cccc(/C=N/Nc2cc(N3CCOCC3)nc(OCCc3ccc(CN)cc3)n2)c1 | – | – | 1120 nM | – |
| c1ccc(-c2cccc(-c3cc(N4CCOCC4)n4nc(-c5ccncc5)cc4n3)n2)cc1 | – | – | 230 nM | – |
| Oc1cc(-c2ccccc2)nn1-c1cc(N2CCOCC2)n2nc(-c3ccncc3)nc2n1 | – | – | 693 nM | – |
| Oc1cc(C2CCOCC2)nn1-c1cc(N2CCOCC2)n2nc(-c3ccncc3)cc2n1 | – | – | 9100 nM | – |
| Cc1cccc(/C=N/Nc2nc(N3CCOCC3)c3ncccc3n2)c1 | – | – | 8210 nM | – |
| c1ccc(-c2ccnc(-c3cc(N4CCOCC4)nc(OCc4ccncc4)n3)n2)cc1 | – | – | 1450 nM | – |
| c1ccc(N2CCc3c(OCc4cccnc4)nc(N4CCOCC4)nc32)cc1 | – | – | 2680 nM | – |
| Fc1cccc(-c2ccnn2-c2nc(N3CCOCC3)c3ncccc3n2)c1 | – | – | 5750 nM | – |
| Cc1cccc(/C=N/Nc2cc(N3CCOCC3)n3nc(-c4ccncc4)cc3n2)c1 [APY0201] | – | – | – | population of propidium iodide-positive dead cells ([1]; PIKFYVE TDP-43 model, 0.23 μM, FIG. 6): reduced the population of propidium iodide-positive dead cells; viability ([1]; PIKFYVE TDP-43 model, concentrations ranging from 0.5 mM to less than 100 nM): increased viability; viable cells (propidium iodide-negative population) (FAB1 TDP-43 yeast strain; FAB1 TDP-43, across a range of compound concentrations (only 0.23 μM is shown), FIG. 5): no increase in viable cells |
| Cc1cccc(/C=N/Nc2cc(N3CCOCC3)n3nc(-c4ccncc4)cc3n2)c1 [drawing 190] | Active | Inactive | – | – |
| Cc1cccc(/C=N/Nc2nc(N3CCOCC3)c3nc(-c4ccncc4)n(C)c3n2)c1 [drawing 192] | Active | Inactive | – | – |
| Cc1cccc(/C=N/Nc2nc(N3CCOCC3)c3nc(-c4ccncc4)n(C)c3n2)c1 [drawing 206] | – | – | 4720 nM | – |

— patent US20250197375A1, “PYRIMIDINES AND METHODS OF THEIR USE” (Kineta, Inc., priority 2021, published 2025)
